Measured values: patent publication US20240067932A1, “METHODS AND COMPOSITIONS FOR GENERATING HEMOGENIC ENDOTHELIAL CELLS FROM PLURIPOTENT STEM CELLS” (Trailhead Biosystems Inc., priority 2022, published 2024)

Legend:
Assay type in all cases: cell-based, human
[1] = system: early mesoderm progenitors; test: 8-factor HD-DoE experiments optimized for maximum GATA2 expression (qPCR, partial least squares models)
[2] = system: early mesoderm progenitors; test: Factor criticality / dynamic profile analysis of gene expression on removal of a finalized effector; design: expression level of GATA2 / expression level of TAL1 / expression level of CD44 / expression level of KDR / expression level of CD34 / expression level of CD31: unit not given here
[3] = system: early mesoderm progenitors; test: 8-factor HD-DoE experiments optimized for maximum GATA2 expression (qPCR, partial least squares models); conditions: for factor contribution (maximum expression of GATA2): first model, FIG. 2, factors Forskolin, VEGF, FGF2, Albumax, SUN1162, Hydrocortisone, SB341542, Resveratrol, 3 days after stage 1
Text: The early mesoderm progenitors were used for further differentiation along the endothelial lineage using a High-Dimensional Design of Experiments (HD-DoE) approach to simultaneously test multiple process inputs (e.g., small molecule agonists or antagonists) on output responses, such as gene expression. Based on predicted conditions that maximize expression of hemogenic endothelial enriched genes such as CD31, CD34, CD143, CD309, GATA2, Fill and RUNX1, vWF, a complex recipe was developed for generating differentiated hemogenic endothelial cells from the early mesoderm progenitors, composed of 8 agents as shown below in Table 1:
First, undifferentiated iPSC were grown for 48 h in CDM2 media containing 6 uM CHIR99021 (referred to herein as stage 1). Then stage 2 media was engineered. The basis of this was an 8-factor HD-DoE experiment with focus on differentiation of cells toward the hemogenic endothelial lineage for an additional 3 days after termination of stage 1 treatment. To test the effectors, 48 different combinations of effectors generated using Design-of-Experiments compression through D-optimality were robotically prepared. The effector combinations were prepared in a basal media and were subsequently added to the cells, which were then allowed to differentiate. Three days later, RNA extraction was performed, and gene expression was obtained using quantitative PCR analysis. The data were normalized and modeled using partial least squares regression analysis to the effector design, resulting in the generation of gene-specific models, which after model tuning for maximal Q2 predictive power, provided explanation of the effectors ability to control the expression of individual genes, combinatorically, and individually. Solutions within the tested space could then be explored to address desirability. For stage 2, conditions were created inducing the expression of GATA2, a transcription factor identified as a master regulator of hematopoiesis. GATA2 promotes the generation of HECs and facilitates endothelial-to-hematopoietic transition (EHT). GATA2 also suppresses cardiac differentiation at the mesoderm stage, directing cells to a hematopoietic fate. Optimizing for maximal expression of GATA2 led to a robust solution. […] In this model, high levels of KDR, important receptor for VEGF signaling, were observed. […] This model was derived from initial testing of eight factors including: Forskolin, VEGF, FGF2, Albumax, SUN1162, Hydrocortisone, SB341542, and Resveratrol. […] Factors with low contribution were excluded.

[4] = second model, FIG. 3, factors CHIR, VEGF, FGF2, TTNBP, AGN194310, Y27632, Thymosin-β4, heparin
[5] = model FIG. 10 (XAV939, VEGF, FGF2, L-ascorbic acid kept), factor present
[6] = model FIG. 10, named factor removed
[7] = fourth model, FIG. 5, factors VEGF, FGF2, Sphingosine 1 phosphate, V11298, Pyrintegrin, Erythropoietin, L-ascorbic acid, XAV939
[8] = model FIG. 7 (VEGF, Forskolin, FGF2), factor present
[9] = model FIG. 7, named factor removed, others kept
[10] = model FIG. 8, named factor removed, others kept
[11] = model FIG. 9, named factor removed

C/C(=C\c1ccc(C(=O)O)cc1)c1ccc2c(c1)C(C)(C)CCC2(C)C [TTNBP]
factor contribution (maximum expression of GATA2) [1, 4]: relatively low factor contribution

Oc1nc(-c2ccc(C(F)(F)F)cc2)nc2c1CSCC2 [XAV939, reference compound]
expression level of GATA2 [2, 5]: 992
expression level of CD31 ([2]; model FIG. 10, factor present): 6619
expression level of CD34 ([2]; model FIG. 10, factor present): 7050
expression level of CD44 ([2]; model FIG. 10, factor present): 838
expression level of FLI1 (Fill [sic]) ([2]; model FIG. 10, factor present): 13094
expression level of KDR ([2]; model FIG. 10, factor present): 36067
expression level of TAL1 ([2]; model FIG. 10, factor present): 1265
expression level of CD31 [2, 6]: 2181
expression level of CD34 [2, 6]: 5740
expression level of CD44 [2, 6]: 799
expression level of FLI1 (Fill [sic]) [2, 6]: 7237
expression level of GATA2 [2, 6]: 560
expression level of KDR [2, 6]: 31179
expression level of TAL1 [2, 6]: 982
factor contribution (maximum expression of GATA2) [1, 7]: 16

C[C@@H](N)[C@H]1CC[C@H](C(=O)Nc2ccncc2)CC1 [Y27632]
factor contribution (maximum expression of GATA2) [1, 4]: relatively low factor contribution

FGF2: FGFR agonist (e.g., recombinant human FGF2)
factor contribution in 2 of 3 models ([3]; across models): > 16
factor contribution (maximum expression of GATA2) [3]: 17
expression level of GATA2 [2, 8]: 583
expression level of CD31 ([2]; model FIG. 7, factor present): 879
expression level of CD44 ([2]; model FIG. 7, factor present): 576
expression level of FLI1 (Fill [sic]) ([2]; model FIG. 7, factor present): 3970
expression level of KDR ([2]; model FIG. 7, factor present): 33760
expression level of CD31 [2, 9]: 505
expression level of CD44 [2, 9]: 274
expression level of FLI1 (Fill [sic]) [2, 9]: 3374
expression level of GATA2 [2, 9]: 458
expression level of KDR [2, 9]: 23868
expression level of CD31 ([2]; model FIG. 8, factor present): 807
expression level of CD44 ([2]; model FIG. 8, factor present): 748
expression level of KDR ([2]; model FIG. 8, factor present): 40630
expression level of CD31 [2, 10]: 677
expression level of CD44 [2, 10]: 626
expression level of KDR [2, 10]: 29902
expression level of GATA2 [2, 5]: 992
expression level of CD31 ([2]; model FIG. 10, factor present): 6619
expression level of CD34 ([2]; model FIG. 10, factor present): 7050
expression level of CD44 ([2]; model FIG. 10, factor present): 838
expression level of FLI1 (Fill [sic]) ([2]; model FIG. 10, factor present): 13094
expression level of KDR ([2]; model FIG. 10, factor present): 36067
expression level of TAL1 ([2]; model FIG. 10, factor present): 1265
expression level of CD31 [2, 6]: 2002
expression level of CD34 [2, 6]: 6550
expression level of CD44 [2, 6]: 466
expression level of FLI1 (Fill [sic]) [2, 6]: 5406
expression level of GATA2 [2, 6]: 397
expression level of KDR [2, 6]: 22308
expression level of TAL1 [2, 6]: 866
factor contribution (maximum expression of GATA2) [1, 7]: 22
factor contribution (maximum expression of GATA2) [1, 4]: low factor contribution

Thymosin-β4: Actin binding protein (SDKPDMAEIEKFDKSKLKKTETQEKNPLPSKETIEQEKQAGES; UniProt P62328 2-44, looked up)
expression level of GATA2 ([2]; model FIG. 8 (VEGF, FGF2, Thymosin-β4), factor present): 633
expression level of CD44 ([2]; model FIG. 8, factor present): 748
expression level of KDR ([2]; model FIG. 8, factor present): 40660
expression level of CD44 [2, 10]: 626
expression level of GATA2 [2, 10]: 437
expression level of KDR [2, 10]: 37788
factor contribution (maximum expression of GATA2) [1, 4]: 16

VEGF
factor contribution (maximum expression of GATA2) [3]: 46
expression level of GATA2 [2, 8]: 583
expression level of CD31 ([2]; model FIG. 7, factor present): 879
expression level of CD34 ([2]; model FIG. 7, factor present): 2350
expression level of CD44 ([2]; model FIG. 7, factor present): 578
expression level of FLI1 (Fill [sic]) ([2]; model FIG. 7, factor present): 3971
expression level of KDR ([2]; model FIG. 7, factor present): 33751
expression level of TAL1 ([2]; model FIG. 7, factor present): 370
expression level of CD31 [2, 9]: 2
expression level of CD34 [2, 9]: 150
expression level of CD44 [2, 9]: 349
expression level of FLI1 (Fill [sic]) [2, 9]: 241
expression level of GATA2 [2, 9]: 236
expression level of KDR [2, 9]: 16856
expression level of TAL1 [2, 9]: 18
effect on expression of hemogenic endothelial genes analyzed (in words) ([2]; model FIG. 8): critical for increasing the expression of all hemogenic endothelial genes analyzed
expression level of CD31 ([2]; model FIG. 9, factor present): 869
expression level of CD34 ([2]; model FIG. 9, factor present): 2341
expression level of FLI1 (Fill [sic]) ([2]; model FIG. 9, factor present): 2292
expression level of KDR ([2]; model FIG. 9, factor present): 7518
expression level of CD31 [2, 11]: 262
expression level of CD34 [2, 11]: 868
expression level of FLI1 (Fill [sic]) [2, 11]: 974
expression level of KDR [2, 11]: 6209
effect on expression of hemogenic endothelial genes analyzed (in words) ([2]; model FIG. 10): critical for expression of all hemogenic endothelial genes analyzed
effect on expression of hemogenic endothelial genes analyzed (in words) ([2]; model FIG. 11): critical for expression of all hemogenic endothelial genes analyzed
effect towards GATA2 induction in 4 out of 5 models ([1]; across models): strong positive effect towards GATA2 induction
factor contribution (maximum expression of GATA2) ([1]; fifth model, FIG. 6, factors VPA, SCF, BMP4, EFG, FLT3L, Arginine, Retinoic Acid, VEGF): 22
factor contribution (maximum expression of GATA2) [1, 7]: 22
factor contribution (maximum expression of GATA2) [1, 4]: 25

heparin
factor contribution (maximum expression of GATA2) [1, 4]: relatively low factor contribution
